# Laboratory results taken from patent US20260265771A1, “METHODS OF INCREASING THE REGENERATION EFFICIENCY IN PLANTS” (Institute of Genetics and Developmental Biology Chinese …, priority 2022, published 2026).
# “Also recorded” adds a separate entry of the source.
# Tests used:
# [1] = test system: hypocotyl explants of tomato cultivar Ailsa Craig; experiment: Callus formation of tomato hypocotyl explants on callus-inducing medium (CIM); format: cell-based
# Experimental: FIG. 6—(a) Hypocotyl explants of WT (Ailsa Craig, AC) and prr mutants were cultured on callus-inducing medium (CIM) in the absence of SIPEP (REF1) and CIM REF1 at a concentration of 1 nM for 14 days, photographs of the callus formation of these plants are shown. (b) The distribution of projected callus area of WT and prr mutants grown in the absence of REF1 in a callus inducing medium (control) and in a callus inducing medium in the presence of 1 nM SIPEP (REF1). The projected area of callus was quantified by Image J. Individual values (black dots) are shown and error bars represent SD from three independent experiments.
# FIG. 9—Hypocotyl explants of WT (Ailsa Craig, AC) were cultured on callus-inducing medium (CIM) containing indicated concentrations of REF1, and callus phenotype was scored 14 days after incubation. […] The projected area of callus was quantified by Image J. Individual values (black dots) are shown and error bars represent SD from three independent experiments. ***P<0.001, **P<0.01, *P<0.05 (Student's t-test).
# Relative callus area was determined by quantifying the area of each callus using ImageJ, the average of each group was calculated, for each group this was then divided by the average of the control group.
# To further test whether SIPEP (REF1) is a wound signal promoting regeneration in tomato, wild type, prr-1 and prr-2 Aisla Craig hypocotyl explants were cultured on a callus inducing medium in the presence and absence of SIPEP (REF1) at 1 nM. The callus phenotype was then scored at 14 days after incubation (FIG. 6), here it can be seen that presence of 1 nM REF1 in the medium increased callus area in all explants tested, crucially, the relative callus area of prr-1 and prr-2 was restored when REF1 was present in the medium.
# To test the effect of the dose of SIPEP (REF1) on callus formation hypocotyl explants of WT (Ailsa Craig) were cultured on callus-inducing medium (CIM) containing indicated concentrations of REF1 in FIG. 9 (mock with 0, 10^−4, 10^−3, […], 1, and 10 nM) and callus phenotype was scored 14 days after incubation. Box plots represent the distribution of projected callus area.
# Callus formation was measured in RER knock out mutants (rer-1 and rer-3) compared to wild type (WT) tomato plants (Ailsa Craig) in the presence and absence of SIPEP (REF1). […] Here it can be seen that callus area was highest in WT plant grown with REF1, as REF1 induces callus formation, as shown in Examples 2 and 4.
# ectodomains of RER = experiment: Pull-down assay with HA-Flag-tagged RER ectodomains and biotinylated peptides; format: binding, tomato; settings: biotinylated peptide
# Sequence of ectodomains of RER (as listed by the source): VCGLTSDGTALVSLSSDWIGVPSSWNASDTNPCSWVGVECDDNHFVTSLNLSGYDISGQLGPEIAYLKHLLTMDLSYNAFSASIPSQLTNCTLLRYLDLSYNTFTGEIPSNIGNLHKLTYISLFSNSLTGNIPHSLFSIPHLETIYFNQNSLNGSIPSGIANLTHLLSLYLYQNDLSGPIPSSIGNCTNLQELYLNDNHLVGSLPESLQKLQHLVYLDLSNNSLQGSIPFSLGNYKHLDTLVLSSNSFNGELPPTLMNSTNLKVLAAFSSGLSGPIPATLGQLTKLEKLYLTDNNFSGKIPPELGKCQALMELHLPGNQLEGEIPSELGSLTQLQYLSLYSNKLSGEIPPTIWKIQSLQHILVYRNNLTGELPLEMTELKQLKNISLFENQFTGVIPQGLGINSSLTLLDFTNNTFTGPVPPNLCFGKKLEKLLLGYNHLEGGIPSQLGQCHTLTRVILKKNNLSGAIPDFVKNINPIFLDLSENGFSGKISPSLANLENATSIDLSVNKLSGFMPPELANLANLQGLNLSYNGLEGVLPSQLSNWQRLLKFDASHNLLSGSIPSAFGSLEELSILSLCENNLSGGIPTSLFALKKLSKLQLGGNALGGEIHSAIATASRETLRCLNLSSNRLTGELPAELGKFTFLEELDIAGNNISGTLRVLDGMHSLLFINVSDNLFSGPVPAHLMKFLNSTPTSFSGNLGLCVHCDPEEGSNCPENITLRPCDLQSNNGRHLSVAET
# RER = experiment: pFRK1::LUC expression in A. thaliana protoplasts (receptor activation); format: cell-based, tomato; settings: 3 h
# Sequence of RER (as listed by the source): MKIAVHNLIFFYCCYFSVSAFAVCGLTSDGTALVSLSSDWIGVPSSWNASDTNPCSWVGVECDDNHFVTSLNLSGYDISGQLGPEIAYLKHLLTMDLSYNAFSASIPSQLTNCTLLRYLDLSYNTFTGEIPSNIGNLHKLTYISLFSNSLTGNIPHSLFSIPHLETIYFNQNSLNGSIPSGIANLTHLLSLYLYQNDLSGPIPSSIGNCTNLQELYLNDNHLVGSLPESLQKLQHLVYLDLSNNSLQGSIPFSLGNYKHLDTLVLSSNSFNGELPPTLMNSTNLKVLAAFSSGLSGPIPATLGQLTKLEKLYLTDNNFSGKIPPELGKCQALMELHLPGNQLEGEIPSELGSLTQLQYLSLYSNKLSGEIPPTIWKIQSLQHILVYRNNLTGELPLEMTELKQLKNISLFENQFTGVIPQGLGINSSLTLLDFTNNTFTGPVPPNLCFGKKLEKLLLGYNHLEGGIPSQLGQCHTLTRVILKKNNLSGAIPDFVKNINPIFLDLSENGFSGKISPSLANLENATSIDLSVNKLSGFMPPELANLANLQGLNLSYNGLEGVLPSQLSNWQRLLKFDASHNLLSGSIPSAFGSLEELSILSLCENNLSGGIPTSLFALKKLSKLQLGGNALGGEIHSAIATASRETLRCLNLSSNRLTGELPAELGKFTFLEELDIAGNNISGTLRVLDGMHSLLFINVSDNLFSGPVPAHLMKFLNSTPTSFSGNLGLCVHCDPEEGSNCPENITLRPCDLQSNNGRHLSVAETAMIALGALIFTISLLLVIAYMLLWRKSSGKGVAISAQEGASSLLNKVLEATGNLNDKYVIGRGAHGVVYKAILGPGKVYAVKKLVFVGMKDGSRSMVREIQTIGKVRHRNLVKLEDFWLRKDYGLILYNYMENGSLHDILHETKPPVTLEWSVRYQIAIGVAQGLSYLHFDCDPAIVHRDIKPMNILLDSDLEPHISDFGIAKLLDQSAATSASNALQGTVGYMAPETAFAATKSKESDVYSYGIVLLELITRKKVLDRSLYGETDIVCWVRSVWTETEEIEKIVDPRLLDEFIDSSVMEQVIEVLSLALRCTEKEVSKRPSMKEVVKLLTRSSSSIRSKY
# Experimental: Data are mean±SD, n=3 repeats. […] Data are mean±SD, n=3 repeats.
# Receptor activation was tested by using FRK1 expression as a marker gene. […] Data are mean±SD, n=3 repeats. ***P<0.001 (Student's t test); ns, not significant FRK-Luciferase expression was used as a marker to test REF1 binding-mediated activation of its receptor. Based on these assay, the EC50 was calculated (half-maximal stimulation) of REF1-receptor binding as an assessment of the binding affinity of REF1 to its receptor RER.
# [2] = test system: RER1-SERKs receptor complex; experiment: Co-immunoprecipitation of RER with SERKs in tobacco leaves; format: cell-based, tomato; settings: 100 nM REF1
# Experimental: (§1) FIG. 49—REF1-RER1 regulates regeneration through SERK co-receptors. (a) RER1 complexes with SERK1, SERK3a and SERK3b in a REF1-dependent manner. Tobacco leaves transfected with SERKs-myc and RER1-HA-Flag were treated with 100 nM REF1 before IP with anti-myc agarose. RER1 and SERKs were detected by immunoblotting with anti-Flag or anti-myc antibodies, respectively. (b and c) REF1-induced callus formation of indicated genotypes. Hypocotyl explants were cultured on CIM with or without 1 nM REF1 for 14 d before callus phenotype was scored. Shown are representative callus images (b) and quantification of the callus projection area (c). Bars, 1 mm. Data are mean±SE. n=30 hypocotyl explants. (d and e) REF1-induced shoot organogenesis of indicated genotypes. Hypocotyl explants were cultured on CIM for 14 d and then transferred to SIM with or without 1 nM REF1 for 21d before shoot organogenesis phenotype was scored. Shown are representative images of hypocotyl explants (d) and the number of regenerated shoots per explant (e). Bars, 0.5 cm. Data are mean±SE. n=50 hypocotyl explants. In (c), the projected area of callus was quantified by Image J. Box plots represented the distribution of projected callus area. […] In (c) and (e), data points from three biological replicates were analysed with a one-sided Kruskal-Wallis test with Holm correction, followed by post hoc Dunn's test. […]
# [3] = test system: serk and sIwind1 mutant hypocotyl explants; experiment: Callus formation and shoot organogenesis of serk and sIwind1 mutant hypocotyl explants; format: cell-based, tomato; settings: 1 nM REF1
# Experimental: as §1, with “(d and e) REF1-induced shoot organogenesis of indicated genotypes.” left out, “Shown are representative images of hypocotyl explants (d) and the number of regenerated shoots per explant (e). Bars, 0.5 cm. Data are mean±SE. n=50 hypocotyl explants.” left out
# (a) Induction of the SIWIND1 promoter activity at the wound sites of hypocotyl explants. […] Hypocotyl explants were cultured on CIM with or without 1 nM REF1 for 14 d before callus phenotype was scored. […]
sequence,measurement,setting,value
"ATDRRGRPPSRPKVGSGPPPQNN (listed as Solanum lycopersicum) [REF1, 23 amino acid tomato peptide cleaved from precursor PROSIPEP]",optimum concentration to maximize callus formation,"[1]; WT Ailsa Craig explants, CIM, 14 days",1 nM
same,relative callus area,"[1]; WT Ailsa Craig, 10 nM REF1 compared with 1 nM",sharp decrease
same,relative callus area,"[1]; WT Ailsa Craig, CIM with 1 nM REF1 vs without, 14 days",induced larger callus areas; also recorded: highest
same,"relative callus area, dose dependence","[1]; WT Ailsa Craig, CIM, mock to 10 nM REF1, 14 days",increased in a dose dependent manner
same,relative callus area,"[1]; prr-1 and prr-2 mutants, CIM with 1 nM REF1, 14 days",restored
same,REF1 induced callus formation (relative callus area),"[1]; rer-1 and rer-3 knockouts, presence vs absence of REF1",failing to lead to any increase; also recorded: defective
same,binding to RER ectodomain (pull-down),ectodomains of RER,binds
same,binding-mediated activation of receptor RER (pFRK1::LUC expression),RER; 100 nM,bound
same,binding affinity of REF1 to its receptor RER,RER; indicated concentrations,high affinity
same,"complex formation of RER with SERK1, SERK3a and SERK3b (co-IP)",[2],could simulate complex formation; also recorded: REF1-dependent
same,rescue of compromised regenerative capacity,[3]; sIwind1 mutants,could not be rescued
same,"rescue of regenerative defects (callus formation, shoot organogenesis)","[3]; serk3a-1, serk3b-1 and serk3a-1 serk3b-1 mutants",failed to rescue
